# Measured values: patent US20190169140A1, “IDO1 INHIBITOR AND PREPARATION METHOD AND APPLICATION THEREOF” (SHANDONG LUYE PHARMACEUTICAL CO., LTD., priority 2016, published 2019)
# Tests used:
# [1] = Test for permeability across MDR1; assay type: in vitro ADME; conditions: dog, MDCK-MDR1
# Procedure: Test for Permeability Across MDR1
# A sample for test was dissolved in dimethyl sulfoxide (DMSO) or other suitable solvents, to be prepared into 10 mM stock solution. A suitable internal standard (IS) was dissolved in acetonitrile (ACN) or other organic solvents as a stop solution. Specific information would be described in a research report.
# Fenoterol, propranolol, and digoxin acted as low-permeability control, high-permeability control, and P-gp substrate in the present research. The stock solutions of these compounds were prepared with DMSO, stocked at 2-8° C., and valid for use within 3 months.
# In the present project, a Hank's balanced salt buffer containing 10 mM HEPES was used as a transport buffer.
# MDR1-MDCK II cells were cultivated using α-MEM culture media (α-Minimum Essential Media), with a culture condition of 37±1° C., 5% CO2, and saturated relative humidity. Afterwards, the cells were inoculated into a BD Transwell-96-well plate (BD Gentest), with an inoculation density of 2.3×10^5 cells/cm^2, then the cells were placed in a carbon dioxide incubator to be incubated for 4-7 days, and then used for a transport experiment.
# A solution to be used was placed in a 37±1° C. water bath kettle to be pre-incubated for 30 minutes. The donor solution and the receiver solution were respectively added to corresponding sides of wells of cell plate (to an apical side and a basolateral side, 75 μL and 250 μL of samples were added respectively), and experiment of bidirectional transport was started. After the addition of the samples, the cell plate was placed in a 37±1° C., 5% CO2 incubator with saturated relative humidity to be incubated for 150 minutes.
# The samples were all centrifuged at 3220 g for 10 minutes after being shaken in a vortex manner. A suitable volume of a supernatant was transferred to a sample analyzing plate. If analysis was not carried out immediately after the plate was sealed, the plate was stored at 2-8° C. The analysis was carried out through a method of LC/MS/MS.
# The sample for test, fenoterol control, propranolol control, and digoxin were analyzed in a semiquantitative manner, and specific values of analytes to a peak area of the internal standard were taken as concentration of the controls.
# [2] = biological target: T1, recombinant human IDO1 enzyme (Homo sapiens, UniProt P14902); assay: Test of hIDO1 for enzymatic activity in vitro (NFK Green fluorescence); assay type: biochemical
# T1 construct: purchased NTRC (Netherlands Translational Research Center) NTRC-hIDO-10K
# T1 sequence (P14902 whole entry): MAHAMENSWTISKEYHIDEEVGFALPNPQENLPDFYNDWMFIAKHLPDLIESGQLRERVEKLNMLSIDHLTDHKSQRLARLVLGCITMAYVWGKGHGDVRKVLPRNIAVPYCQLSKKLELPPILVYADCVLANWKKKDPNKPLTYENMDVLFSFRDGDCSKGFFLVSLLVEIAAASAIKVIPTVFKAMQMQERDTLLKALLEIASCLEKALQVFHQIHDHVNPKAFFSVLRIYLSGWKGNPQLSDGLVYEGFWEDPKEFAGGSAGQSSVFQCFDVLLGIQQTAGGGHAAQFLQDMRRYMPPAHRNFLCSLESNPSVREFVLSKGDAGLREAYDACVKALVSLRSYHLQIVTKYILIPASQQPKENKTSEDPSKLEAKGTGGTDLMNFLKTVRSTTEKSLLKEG
# Procedure: 1. Test of hIDO1 for Enzymatic Activity In Vitro
# 1.1 Purpose of Experiment:
# Changes in production of NFK, an IDO1 enzymatic metabolite were detected with NFK Green™ fluorescent molecules. With an IC50 value of a compound as an index, an inhibitory effect of the compound on recombinant human IDO1 enzyme was evaluated.
# The compound was diluted with dimethyl sulfoxide (DMSO) to 1 mM, with 10 gradients, each 3-fold dilution, in duplicate. 48 μL of 50 mM phosphate buffer, having pH of 6.5, was transferred by the Bravo automatic liquid processing platform to the compound plate. Then 2 μL of an already diluted compound/DMSO solution was added. After even mixing, 10 μL of the resultant mixture was transferred to the enzymatic reaction plate.
# IDO1 enzyme was diluted to 20 nM in a reaction buffer (50 mM phosphate buffer with pH of 6.5, 0.1% of Tween-20, 2% of glycerol, 20 mM ascorbic acid, 20 μg/ml catalase, and 20 μM methylene blue), 20 μL of the diluted IDO1 enzyme was transferred to the enzymatic reaction plate, and incubated at 23° C. for 30 minutes. 10 μL of 400 μM L-type tryptophan substrate was added to start reaction. The incubation lasted at 23° C. for 90 minutes. 10 μL of NFK Green™ fluorescent dye was added. The resultant mixture was sealed with the plate sealing film. After incubation at 37° C. for 4 hours, an Envision multi-functional plate reader was used for reading (Ex 400 nm/Em 510 nm).
# A reference well to which the IDO1 enzyme was added but no compound was added was set to have an inhibition rate of 0%, and a reference well to which no IDO1 enzyme was added was set to have an inhibition rate of 100%. Data was analyzed with XLFit 5 to calculate an IC50 value of the compound.
# [3] = Death and body weight of tumor-bearing mice (CT26 model); assay type: in vivo
# Procedure: Therefore, the dose of the two compounds, compound 360 and compound 117, in the present experiment was set as 100 mg/kg. In order to observe dose-efficacy relevance of 231, a dose of the compound 231 was set as 25, 50, 100, 200 mg/kg in the present experiment. All drugs were administered by gavage, twice a day.
# The day of tumor inoculation was defined as Day 0, and the inoculated animals were grouped randomly on the day of inoculation. One day after the inoculation (Day 1), the administration was started. The experiment had 7 groups in total, with 12 animals in each group. See details in Table 12 for information on animal grouping and administration.
# (3) As for animal weight, body weight of the mouse was weighed each time when the tumor diameter was measured or before the administration, and death of the animals was observed once a day.
# 7.1 Death and Body Weight of Tumor-Bearing Mice
smiles,measurement,setting,value
NS(=O)(=O)NCCOc1nonc1/C(=N/O)Nc1ccc(F)c(Br)c1 [Compound 0015],"Papp A→B at 150 min, 2 µM",[1],1.76 ×10⁻⁶ cm/s
same,"Papp B→A at 150 min, 2 µM",[1],13.6 ×10⁻⁶ cm/s
same,IC50,[2],115 nM
NS(=O)(=O)NCCSc1nonc1/C(=N/O)Nc1ccc(F)c(Br)c1 [Compound 0117],"Papp A→B at 150 min, 2 µM",[1],3.2 ×10⁻⁶ cm/s
same,"Papp B→A at 150 min, 2 µM",[1],11.3 ×10⁻⁶ cm/s
same,IC50,[2],26.2 nM
same,Rate of Weight Change of D17 vs D1,[3]; 100 mg/kg gavage BID,8.5%
same,body weight compared with the control group when the experiment was ended,[3]; 100 mg/kg gavage BID,remarkably decreased weight
same,Body weight of tumor-bearing mice,"[3]; 100 mg/kg gavage BID, D12",23.1 g
same,Body weight of tumor-bearing mice,"[3]; 100 mg/kg gavage BID, D14",23.3 g
same,Body weight of tumor-bearing mice,"[3]; 100 mg/kg gavage BID, D17",24.2 g
same,Body weight of tumor-bearing mice,"[3]; 100 mg/kg gavage BID, Day1",22.3 g
same,Body weight of tumor-bearing mice,"[3]; 100 mg/kg gavage BID, Day3",22.7 g
same,Body weight of tumor-bearing mice,"[3]; 100 mg/kg gavage BID, Day6",22.7 g
same,Body weight of tumor-bearing mice,"[3]; 100 mg/kg gavage BID, Day8",21.8 g
same,Body weight of tumor-bearing mice,"[3]; 100 mg/kg gavage BID, Day10",22.9 g
CC(=O)NCCSc1nonc1/C(=N/O)Nc1ccc(F)c(Br)c1 [Compound 0227],"Papp A→B at 150 min, 2 µM",[1],12.5 ×10⁻⁶ cm/s
same,"Papp B→A at 150 min, 2 µM",[1],18 ×10⁻⁶ cm/s
same,IC50,[2],59.3 nM
NC(=O)NCCSc1nonc1/C(=N/O)Nc1ccc(F)c(Br)c1 [Compound 0231],"Papp A→B at 150 min, 2 µM",[1],3.79 ×10⁻⁶ cm/s
same,"Papp B→A at 150 min, 2 µM",[1],17.9 ×10⁻⁶ cm/s
same,IC50,[2],42.2 nM
same,Rate of Weight Change of D17 vs D1,[3]; 25 mg/kg gavage BID,12.0%
same,body weight compared with the control group when the experiment was ended,[3]; 25 mg/kg gavage BID,no significant difference
same,Body weight of tumor-bearing mice,"[3]; 25 mg/kg gavage BID, D12",23.9 g
same,Body weight of tumor-bearing mice,"[3]; 25 mg/kg gavage BID, D14",24.4 g
same,Body weight of tumor-bearing mice,"[3]; 25 mg/kg gavage BID, D17",25.2 g
same,Body weight of tumor-bearing mice,"[3]; 25 mg/kg gavage BID, Day1",22.5 g
same,Body weight of tumor-bearing mice,"[3]; 25 mg/kg gavage BID, Day3",21.5 g
same,Body weight of tumor-bearing mice,"[3]; 25 mg/kg gavage BID, Day6",23.3 g
same,Body weight of tumor-bearing mice,"[3]; 25 mg/kg gavage BID, Day8",23.0 g
same,Body weight of tumor-bearing mice,"[3]; 25 mg/kg gavage BID, Day10",23.1 g
same,Rate of Weight Change of D17 vs D1,[3]; 50 mg/kg gavage BID,7.5%
same,body weight compared with the control group when the experiment was ended,[3]; 50 mg/kg gavage BID,remarkably decreased weight
same,Body weight of tumor-bearing mice,"[3]; 50 mg/kg gavage BID, D12",23.4 g
same,Body weight of tumor-bearing mice,"[3]; 50 mg/kg gavage BID, D14",24.2 g
same,Body weight of tumor-bearing mice,"[3]; 50 mg/kg gavage BID, D17",24.5 g
same,Body weight of tumor-bearing mice,"[3]; 50 mg/kg gavage BID, Day1",22.8 g
same,Body weight of tumor-bearing mice,"[3]; 50 mg/kg gavage BID, Day3",23.0 g
same,Body weight of tumor-bearing mice,"[3]; 50 mg/kg gavage BID, Day6",22.7 g
same,Body weight of tumor-bearing mice,"[3]; 50 mg/kg gavage BID, Day8",22.6 g
same,Body weight of tumor-bearing mice,"[3]; 50 mg/kg gavage BID, Day10",23.2 g
same,Rate of Weight Change of D17 vs D1,[3]; 100 mg/kg gavage BID,8.4%
same,body weight compared with the control group when the experiment was ended,[3]; 100 mg/kg gavage BID,remarkably decreased weight
same,Body weight of tumor-bearing mice,"[3]; 100 mg/kg gavage BID, D12",23.5 g
same,Body weight of tumor-bearing mice,"[3]; 100 mg/kg gavage BID, D14",24.3 g
same,Body weight of tumor-bearing mice,"[3]; 100 mg/kg gavage BID, D17",24.4 g
same,Body weight of tumor-bearing mice,"[3]; 100 mg/kg gavage BID, Day1",22.5 g
same,Body weight of tumor-bearing mice,"[3]; 100 mg/kg gavage BID, Day3",22.7 g
same,Body weight of tumor-bearing mice,"[3]; 100 mg/kg gavage BID, Day6",22.8 g
same,Body weight of tumor-bearing mice,"[3]; 100 mg/kg gavage BID, Day8",23.2 g
same,Body weight of tumor-bearing mice,"[3]; 100 mg/kg gavage BID, Day10",23.4 g
same,Rate of Weight Change of D17 vs D1,[3]; 200 mg/kg gavage BID,4.4%
same,body weight compared with the control group when the experiment was ended,[3]; 200 mg/kg gavage BID,remarkably decreased weight
same,Body weight of tumor-bearing mice,"[3]; 200 mg/kg gavage BID, D12",22.3 g
same,Body weight of tumor-bearing mice,"[3]; 200 mg/kg gavage BID, D14",22.9 g
same,Body weight of tumor-bearing mice,"[3]; 200 mg/kg gavage BID, D17",23.7 g
same,Body weight of tumor-bearing mice,"[3]; 200 mg/kg gavage BID, Day1",22.7 g
same,Body weight of tumor-bearing mice,"[3]; 200 mg/kg gavage BID, Day3",23.2 g
same,Body weight of tumor-bearing mice,"[3]; 200 mg/kg gavage BID, Day6",20.8 g
same,Body weight of tumor-bearing mice,"[3]; 200 mg/kg gavage BID, Day8",21.9 g
same,Body weight of tumor-bearing mice,"[3]; 200 mg/kg gavage BID, Day10",22.0 g
"NS(=O)(=O)NCCNc1nonc1C(=NO)Nc1ccc(F)c(Br)c1 [Compound 360, INCB024360, reference compound]","Papp A→B at 150 min, 2 µM",[1],1.61 ×10⁻⁶ cm/s
same,"Papp B→A at 150 min, 2 µM",[1],13.3 ×10⁻⁶ cm/s
same,Rate of Weight Change of D17 vs D1,[3]; 100 mg/kg gavage BID,9.4%
same,body weight compared with the control group when the experiment was ended,[3]; 100 mg/kg gavage BID,no significant difference
same,Body weight of tumor-bearing mice,"[3]; 100 mg/kg gavage BID, D12",24.5 g
same,Body weight of tumor-bearing mice,"[3]; 100 mg/kg gavage BID, D14",25.0 g
same,Body weight of tumor-bearing mice,"[3]; 100 mg/kg gavage BID, D17",25.3 g
same,Body weight of tumor-bearing mice,"[3]; 100 mg/kg gavage BID, Day1",23.2 g
same,Body weight of tumor-bearing mice,"[3]; 100 mg/kg gavage BID, Day3",23.5 g
same,Body weight of tumor-bearing mice,"[3]; 100 mg/kg gavage BID, Day6",23.7 g
same,Body weight of tumor-bearing mice,"[3]; 100 mg/kg gavage BID, Day8",23.5 g
same,Body weight of tumor-bearing mice,"[3]; 100 mg/kg gavage BID, Day10",23.9 g
